# Test results published in article PMC4990184, “The Tp0684 (MglB-2) Lipoprotein of Treponema pallidum: A Glucose-Binding Protein with Divergent Topology” (PLoS ONE, 2016).
# Where two headings read alike, the source gives them in different places.
# What was measured:
# [1] = biological target: T1, TpMglB-2 (Tp0684), wild-type (Treponema pallidum, UniProt Q08255); assay: Isothermal titration calorimetry (ITC) of sugars into wild-type TpMglB-2; format: binding; conditions: for binding heats in ITC control titrations: wild-type TpMglB-2, qualitative
# T1 construct: the DNA fragment encoding amino acid residues 11–378 (cloned without the post-translationally modified N-terminal Cys); made in house; host or cells: E. coli BL21 AI (co-transformed with pGroESL)
# Method: (§1) TpMglB-2 was dialyzed exhaustively against Assay Buffer (10 mM sodium phosphate, pH 7.4, 100 mM NaCl). The sugars to be titrated were dissolved in the same buffer. All titrations were carried out in an iTC200 calorimeter (Malvern, Malvern, UK). A typical titration scheme featured 19 or 20 2-μL injections of 500 μM of the monosaccharide into 50 μM protein in the ca. 200-μL stirred interaction cell. However, the concentrations were sometimes altered to sample a wider range of concentration space. Three titrations were performed per sugar, and the resulting thermograms were serially integrated using NITPIC v. 1.1.7 [54, 78]. All titrations for a given sugar were globally analyzed in ITCsy[55], and confidence intervals were obtained using the error-surface projection method. All ITC illustrations were rendered in GUSSI [79].
# TpMglB-2 [2] = biological target: T2, TpMglB-2 (Treponema pallidum, UniProt Q08255); assay: Differential scanning fluorimetry (DSF) carbon-source screen; format: binding; conditions: for binding in the DSF assay: qualitative; for shift in Tm, app: 10 μM protein, BIOLOG compounds, vs water control
# T2 construct: the DNA fragment encoding amino acid residues 11–378 (cloned without the post-translationally modified N-terminal Cys); made in house; host or cells: E. coli BL21 AI (co-transformed with pGroESL)
# From the text: The unconventional structural organization and the altered Ca^2+-binding site of TpMglB-2 provoked a question: does such a structurally rearranged LBP function similarly to other LBPs? To address this question, we first examined ligand binding. In a previous study on TpMglB-2, we reported that the protein preferred D-glucose and D-galactose over a small number of other monsaccharide carbon sources. However, we wished to interrogate a larger panel of such sources to investigate whether another ligand would bind to the protein with even higher affinity. We thus employed differential scanning fluorimetry (DSF) as a means to probe for ligand binding. This method examines the apparent melting temperature (Tm, app) of the protein; the “apparent” nomenclature is added in recognition of the fact that the reversibility of the transition was not tested in these experiments. Presumably, in the presence of a specifically bound ligand, the protein’s structure will be stabilized, resulting in a higher Tm, app. We used this plate-based method to qualitatively assay for the binding of 190 carbon sources. Only D-glucose and D-galactose caused significant shifts (> 1.5° C) in Tm, app (Fig 5). Thus, these were the only candidate compounds that were selected for additional study.
# The thermal stability of TpMglB-2 in the presence of various putative ligands was determined in a 96-well PCR-plate (Bio-Rad Laboratories, Inc., Hercules, CA). The assumption was that binding ligands would enhance the thermal stability of the protein. For carbon-source screening, Biolog's Phenotype MicroArray (PM) compounds supplied in 96-well microplates (BIOLOG, Inc., Hayward, CA) were dissolved in 50 μL of sterile water to obtain a final concentration of around 10–20 mM. Screenings were performed with plates PM1 and PM2A. Each plate contains 95 compounds and a blank (no ligand) control. The complete plate contents are available at the BIOLOG website (www.biolog.com).
# Each 20 μL standard assay mixture in a 96-well PCR-plate contained 10 μM purified protein and SYPRO Orange (Life Technologies) at 5x concentration in a buffer containing 10 mM phosphate, 100 mM NaCl, pH 7.4. Two μL of the resuspended BIOLOG compounds were added to each well. The plate was sealed and placed in a BioRad CFX96 real-time PCR detector coupled to a C1000 thermal cycler (BioRad Laboratories, Inc., Hercules, CA), and the fluorescence of the dye was monitored as a function of temperature from 4° C to 95° C. Fluorescence readings were recorded every 0.5° C. The data were transformed to–dF/dT v. T curves, and the abscissas of the minima in these curves were defined as the apparent melting temperatures (Tm, app). Significant positive shifts in Tm, app were taken as positive results and were confirmed using ITC.
# TpMglB-2 N19A = biological target: T3, TpMglB-2 N19A (Treponema pallidum, UniProt Q08255, N44A); assay: ITC of D-glucose into TpMglB-2 N19A variant; format: binding; parameters: key: NH: No observable heat of ligand binding
# T3 construct: the DNA fragment encoding amino acid residues 11–378 (cloned without the post-translationally modified N-terminal Cys); made in house; host or cells: E. coli BL21 AI
# Method: (§2) For the construction of the recombinant TpMglB-2 variants, the N19A, W145A, D195A and F313A mutation was individually introduced into the plasmid carrying the wild-type tp0684 sequence using the QuikChange site-directed mutagenesis kit (Agilent Technologies, Santa Clara, CA). The mutation was confirmed by DNA sequencing. The mutant protein was expressed and purified as described above. Protein concentrations were determined in buffer A (20 mM Hepes, 0.1 M NaCl, pH 7.5, 2 mM n-Octyl-β-D-glucopyranoside) using spectrophotometry. Extinction coefficients were calculated using the Protparam tool of ExPASy (www.expasy.org).
# as §1, with “All ITC illustrations were rendered in GUSSI [79].” left out
# TpMglB-2 W145A = biological target: T4, TpMglB-2 W145A (Treponema pallidum, UniProt Q08255, W170A); assay: ITC of D-glucose into TpMglB-2 W145A variant; format: binding
# T4 construct: the DNA fragment encoding amino acid residues 11–378 (cloned without the post-translationally modified N-terminal Cys); made in house; host or cells: E. coli BL21 AI
# Method: as §2
# as §1, with “All ITC illustrations were rendered in GUSSI [79].” left out
# TpMglB-2 D195A = biological target: T5, TpMglB-2 D195A (Treponema pallidum, UniProt Q08255, D220A); assay: ITC of D-glucose into TpMglB-2 D195A variant; format: binding; parameters: key: NH: No observable heat of ligand binding
# T5 construct: the DNA fragment encoding amino acid residues 11–378 (cloned without the post-translationally modified N-terminal Cys); made in house; host or cells: E. coli BL21 AI
# Method: as §2
# as §1, with “All ITC illustrations were rendered in GUSSI [79].” left out
# TpMglB-2 F313A = biological target: T6, TpMglB-2 F313A (Treponema pallidum, UniProt Q08255, F338A); assay: ITC of D-glucose into TpMglB-2 F313A variant; format: binding; parameters: key: NH: No observable heat of ligand binding
# T6 construct: the DNA fragment encoding amino acid residues 11–378 (cloned without the post-translationally modified N-terminal Cys); made in house; host or cells: E. coli BL21 AI
# Method: as §2
# as §1, with “All ITC illustrations were rendered in GUSSI [79].” left out
# TpMglB-2 [3] = biological target: T2, TpMglB-2; assay: Sedimentation velocity analytical ultracentrifugation (conventional SV); conditions: 100 μM D-glucose, 20° C; 95% confidence interval in brackets; apo-TpMglB-2 3.212 S
# Method: Our initial attempt to examine whether this small difference could be detected was conducted using conventional SV. In experiments carried out simultaneously, we sedimented apo-TpMglB-2 and also the protein in the presence of 100 μM D-glucose. By analyzing the data with a non-interacting discrete species model, we could perform a careful analysis using F-statistics that would establish realistic 95% confidence intervals (shown below in brackets) on the refined parameter s. For apo-TpMglB-2, the refined experimental s-value was 3.212 [3.204–3.219] S. The same value of the protein in the presence of D-glucose was 3.292 [3.288–3.297] S. We can estimate the statistical significance of this difference the F-statistic formalism. If we fix the s-value of the apo-protein to that of the liganded protein and repeat the analysis, we arrive at a χ^2 ratio between the two analyses of 1.86. […]
# All AUC experiments were carried out at 20° C in a Beckman-Coulter Optima XL-I centrifuge (Beckman-Coulter Inc., Indianapolis, IN), and Assay Buffer was used in all cases. […] Centrifugation continued for about 16 h, and concentration-profile data were collected using both absorbance and interference optics. Data were initially analyzed using the c(s) method in SEDFIT [82, 83]. As warranted, data were also analyzed using a discrete-species model in SEDPHAT [62].
# TpMglB-2 [4] = biological target: T2, TpMglB-2; assay: Difference sedimentation velocity; conditions: for Δs/s¯: 5 mg/mL TpMglB-2, 95% confidence interval in brackets
# Method: Minute sedimentation-coefficient differences are readily detected using a method pioneered in H. Schachman’s lab called “difference sedimentation velocity” [64]. This method provides a direct, side-by-side comparison of the sedimentation velocity of two macromolecular solutes. In brief, two samples of 5 mg/mL TpMglB-2 were prepared. To one sample, a non-binding sugar, either D-mannose or D-ribose (these sugars evidenced no binding in neither the DSF nor ITC assays), was introduced, whereas an identical concentration of D-glucose was added to the other. The protein sample with the non-binding sugar was placed in the reference sector of a centrifugation centerpiece, and the sample sector of the same centerpiece was filled with the D-glucose-containing protein solution. Centrifugation was initiated, and Rayleigh laser interferometry was used to monitor the sedimentation. Because this mode of data collection reports on refractive-index differences between the two sectors, the difference between the sedimentation in the two sectors is recorded. This signal (for unequal solution-column heights) will appear roughly as a Gaussian-shaped curve inverted about the radial axis (Fig 8A). If the macromolecular solutes in each sector sediment at different rates, the absolute value of the area of (or, more specifically, the normalized first moment of) this curve will increase as sedimentation continues. This trend reports on the fractional sedimentation-coefficient difference between the solutes in the reference and sample sectors, termed Δs/s¯ , i.e. the change in s normalized by the mean s-value. […]
# For difference SV studies, a slightly different protocol was followed. […] Sedimentation and sedimentation differences were monitored using the interference optics only; scans were obtained every 60 s for almost 17 h.
# As presented by the data-acquisition software, interference data have the amount of fringe displacement, J, on the y-axis and the radius from the center of rotation on x-axis (r). In this case, of course, the difference in fringe displacement, ΔJ, was measured. […]
# TpMglB-2 [5] = biological target: T2, TpMglB-2
# T2 sequence (Q08255 36-403): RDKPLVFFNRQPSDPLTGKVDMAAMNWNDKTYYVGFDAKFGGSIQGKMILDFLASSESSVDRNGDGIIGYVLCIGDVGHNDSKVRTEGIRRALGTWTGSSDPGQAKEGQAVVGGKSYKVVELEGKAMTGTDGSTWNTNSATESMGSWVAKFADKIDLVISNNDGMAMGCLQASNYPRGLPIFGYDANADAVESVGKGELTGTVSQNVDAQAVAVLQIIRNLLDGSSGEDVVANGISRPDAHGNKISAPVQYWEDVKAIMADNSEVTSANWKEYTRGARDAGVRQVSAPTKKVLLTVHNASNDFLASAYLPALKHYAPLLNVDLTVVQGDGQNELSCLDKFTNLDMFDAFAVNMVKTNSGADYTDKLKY
# T1 sequence (Q08255 36-403): as above
# T4 sequence (Q08255 36-403 W170A): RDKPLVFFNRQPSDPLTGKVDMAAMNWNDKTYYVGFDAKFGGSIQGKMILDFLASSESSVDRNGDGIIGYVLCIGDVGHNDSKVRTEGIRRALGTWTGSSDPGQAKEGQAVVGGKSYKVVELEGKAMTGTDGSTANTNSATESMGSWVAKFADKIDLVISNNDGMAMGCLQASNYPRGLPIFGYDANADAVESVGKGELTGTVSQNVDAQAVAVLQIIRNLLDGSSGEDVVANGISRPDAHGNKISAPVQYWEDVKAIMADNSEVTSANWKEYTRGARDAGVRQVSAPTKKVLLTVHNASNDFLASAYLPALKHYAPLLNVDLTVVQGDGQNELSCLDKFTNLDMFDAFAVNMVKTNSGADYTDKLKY
# T6 sequence (Q08255 36-403 F338A): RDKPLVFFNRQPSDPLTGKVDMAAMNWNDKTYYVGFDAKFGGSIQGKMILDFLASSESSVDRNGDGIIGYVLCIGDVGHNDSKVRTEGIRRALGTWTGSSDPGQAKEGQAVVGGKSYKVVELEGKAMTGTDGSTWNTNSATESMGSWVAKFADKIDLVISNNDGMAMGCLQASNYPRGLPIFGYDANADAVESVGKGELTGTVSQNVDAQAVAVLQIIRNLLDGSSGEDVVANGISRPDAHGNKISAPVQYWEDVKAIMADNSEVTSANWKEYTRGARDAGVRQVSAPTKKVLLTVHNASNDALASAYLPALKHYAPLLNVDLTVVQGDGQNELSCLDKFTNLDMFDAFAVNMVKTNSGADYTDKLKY
# T3 sequence (Q08255 36-403 N44A): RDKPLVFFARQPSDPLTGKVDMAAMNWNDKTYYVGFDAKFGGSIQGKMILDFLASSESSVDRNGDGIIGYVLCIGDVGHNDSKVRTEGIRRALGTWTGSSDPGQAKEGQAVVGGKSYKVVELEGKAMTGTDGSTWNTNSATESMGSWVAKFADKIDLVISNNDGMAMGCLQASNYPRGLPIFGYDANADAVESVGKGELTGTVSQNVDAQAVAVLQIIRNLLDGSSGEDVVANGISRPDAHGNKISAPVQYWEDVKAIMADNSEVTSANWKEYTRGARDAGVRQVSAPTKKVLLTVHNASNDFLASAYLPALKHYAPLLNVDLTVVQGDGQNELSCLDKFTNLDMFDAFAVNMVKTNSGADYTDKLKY
# T5 sequence (Q08255 36-403 D220A): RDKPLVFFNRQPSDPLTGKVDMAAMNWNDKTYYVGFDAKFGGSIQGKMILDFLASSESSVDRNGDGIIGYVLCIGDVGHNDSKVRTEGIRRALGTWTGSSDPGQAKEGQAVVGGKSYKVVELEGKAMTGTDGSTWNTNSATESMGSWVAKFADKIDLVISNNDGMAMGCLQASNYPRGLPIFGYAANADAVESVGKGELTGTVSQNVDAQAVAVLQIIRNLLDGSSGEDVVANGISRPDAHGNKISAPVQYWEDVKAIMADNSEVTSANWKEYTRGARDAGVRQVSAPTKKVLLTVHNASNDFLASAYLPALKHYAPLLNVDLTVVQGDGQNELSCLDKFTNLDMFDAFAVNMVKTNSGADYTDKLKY
structure (smiles),measurement,setting,value
"OC[C@H]1OC(O)[C@@H](O)[C@@H](O)[C@@H]1O (stereo partly drawn) [D-Mannose, reference compound]",binding heats in ITC control titrations,[1],failed to exhibit any binding heats
same,binding in the DSF assay,TpMglB-2 [2],failed to bind
OC[C@H]1OC(O)[C@H](O)[C@@H](O)[C@@H]1O (stereo partly drawn) [D-glucose],Kd,"[1]; wild-type TpMglB-2, 10 mM sodium phosphate pH 7.4, 100 mM NaCl, 68.3% confidence intervals in brackets",1100 nM
same,KD,TpMglB-2 N19A,NH^b
same,KD for glucose binding of W145A relative to the wild-type protein,TpMglB-2 W145A,tenfold higher
same,Kd,"TpMglB-2 W145A; W145A variant, 68.3% confidence intervals in brackets",12700 nM
same,KD,TpMglB-2 D195A,NH
same,KD,TpMglB-2 F313A,NH
same,"shift in Tm, app",TpMglB-2 [2],> 1.5 °C
same,refined experimental s-value of TpMglB-2 in the presence of the sugar,TpMglB-2 [3],3.292 [3.288–3.297] S
same,Δs/s¯,TpMglB-2 [4]; D-glucose in sample sector vs D-mannose in reference sector,"about 0.0177 [0.0163, 0.0191]"
same,Δs/s¯,TpMglB-2 [4]; D-glucose in sample sector vs D-ribose in reference sector,"0.0180 [0.0163, 0.0197]"
same,"observed change in s (Δs/s¯ multiplied by the observed s, 3.2 S)",TpMglB-2 [4]; D-glucose vs non-binding sugar,approximately 0.06 S
same,Kd,"TpMglB-2 [5]; similar TpMglB-2 construct, 20 mM NaCl; read-out: equilibrium dissociation constant; cited from earlier work",150 nM
O=C[C@H](O)[C@@H](O)[C@@H](O)[C@H](O)CO [D-galactose],KD for D-galactose relative to that of D-glucose,[1]; wild-type TpMglB-2,30 fold
same,"shift in Tm, app",TpMglB-2 [2],> 1.5 °C
same,Kd,"TpMglB-2 [5]; read-out: equilibrium dissociation constant; similar TpMglB-2 construct, 20 mM NaCl; cited from earlier work",250 nM
"O=C[C@H](O)[C@H](O)[C@H](O)CO [D-ribose, reference compound]",binding heats in ITC control titrations,[1],failed to exhibit any binding heats
same,binding in the DSF assay,TpMglB-2 [2],failed to bind
